Laboratory results from ChEMBL document CHEMBL3991601, “The target landscape of clinical kinase drugs” (Science, 2017).
Calls of active or inactive are those of the source. For most assays here, no stated cut-off is given here; in the data, actives have a measured Kd and inactives only a lower limit.

Assays:
[1] = biological target: MAP kinase-activated protein kinase 2 (Homo sapiens, UniProt P49137)
Ephrin type-A receptor 4 = Ephrin type-A receptor 4 (Homo sapiens, UniProt P54764)
[2] = biological target: Serine/threonine-protein kinase 16 (Homo sapiens, UniProt O75716)
Chain of Serine/threonine-protein kinase 16 (O75716 whole entry): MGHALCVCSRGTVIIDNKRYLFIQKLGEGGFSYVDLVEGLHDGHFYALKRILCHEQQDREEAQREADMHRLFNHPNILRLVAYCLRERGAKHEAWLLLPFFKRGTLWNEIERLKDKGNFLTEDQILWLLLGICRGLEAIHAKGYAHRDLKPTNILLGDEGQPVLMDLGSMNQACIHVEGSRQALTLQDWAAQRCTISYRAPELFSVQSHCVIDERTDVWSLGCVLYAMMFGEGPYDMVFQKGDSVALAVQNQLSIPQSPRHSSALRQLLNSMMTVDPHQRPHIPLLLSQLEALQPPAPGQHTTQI

ADP/ATP translocase 3 = biological target: T1, ADP/ATP translocase 3 (Homo sapiens, UniProt P12236)
T1 sequence (P12236 whole entry): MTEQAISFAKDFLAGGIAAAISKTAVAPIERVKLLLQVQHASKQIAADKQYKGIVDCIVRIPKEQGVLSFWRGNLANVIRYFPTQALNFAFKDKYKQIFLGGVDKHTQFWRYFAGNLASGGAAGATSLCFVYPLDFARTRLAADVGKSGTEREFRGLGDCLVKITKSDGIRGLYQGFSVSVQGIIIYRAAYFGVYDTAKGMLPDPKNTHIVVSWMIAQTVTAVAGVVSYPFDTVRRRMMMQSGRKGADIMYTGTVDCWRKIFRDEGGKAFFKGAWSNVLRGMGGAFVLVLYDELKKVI

[3] = biological target: T2, Acyl-CoA dehydrogenase family member 11 (Homo sapiens, UniProt Q709F0)
T2 sequence (Q709F0 whole entry): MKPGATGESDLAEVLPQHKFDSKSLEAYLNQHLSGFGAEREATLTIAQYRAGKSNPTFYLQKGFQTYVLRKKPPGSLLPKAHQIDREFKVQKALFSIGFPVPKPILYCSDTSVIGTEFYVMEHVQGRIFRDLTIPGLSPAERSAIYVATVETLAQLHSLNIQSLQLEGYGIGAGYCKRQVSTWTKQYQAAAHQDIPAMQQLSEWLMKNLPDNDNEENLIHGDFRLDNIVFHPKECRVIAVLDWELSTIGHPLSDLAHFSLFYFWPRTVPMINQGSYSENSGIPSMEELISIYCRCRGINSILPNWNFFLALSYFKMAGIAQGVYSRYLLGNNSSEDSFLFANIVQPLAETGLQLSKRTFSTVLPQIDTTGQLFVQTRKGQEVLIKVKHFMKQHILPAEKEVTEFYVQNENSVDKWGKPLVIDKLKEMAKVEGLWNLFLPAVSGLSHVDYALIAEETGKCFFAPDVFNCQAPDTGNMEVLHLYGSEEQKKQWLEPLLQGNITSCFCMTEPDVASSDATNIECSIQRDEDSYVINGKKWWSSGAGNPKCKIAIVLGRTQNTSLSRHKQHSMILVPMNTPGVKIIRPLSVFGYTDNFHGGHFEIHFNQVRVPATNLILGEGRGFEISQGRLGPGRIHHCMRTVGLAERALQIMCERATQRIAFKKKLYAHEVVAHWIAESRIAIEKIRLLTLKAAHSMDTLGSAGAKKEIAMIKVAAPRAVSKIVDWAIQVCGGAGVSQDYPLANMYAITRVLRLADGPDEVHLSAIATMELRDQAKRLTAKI

[4] = biological target: Cyclin-dependent kinase 13 (Homo sapiens, UniProt Q14004)
Chain of Cyclin-dependent kinase 13 (Q14004 whole entry): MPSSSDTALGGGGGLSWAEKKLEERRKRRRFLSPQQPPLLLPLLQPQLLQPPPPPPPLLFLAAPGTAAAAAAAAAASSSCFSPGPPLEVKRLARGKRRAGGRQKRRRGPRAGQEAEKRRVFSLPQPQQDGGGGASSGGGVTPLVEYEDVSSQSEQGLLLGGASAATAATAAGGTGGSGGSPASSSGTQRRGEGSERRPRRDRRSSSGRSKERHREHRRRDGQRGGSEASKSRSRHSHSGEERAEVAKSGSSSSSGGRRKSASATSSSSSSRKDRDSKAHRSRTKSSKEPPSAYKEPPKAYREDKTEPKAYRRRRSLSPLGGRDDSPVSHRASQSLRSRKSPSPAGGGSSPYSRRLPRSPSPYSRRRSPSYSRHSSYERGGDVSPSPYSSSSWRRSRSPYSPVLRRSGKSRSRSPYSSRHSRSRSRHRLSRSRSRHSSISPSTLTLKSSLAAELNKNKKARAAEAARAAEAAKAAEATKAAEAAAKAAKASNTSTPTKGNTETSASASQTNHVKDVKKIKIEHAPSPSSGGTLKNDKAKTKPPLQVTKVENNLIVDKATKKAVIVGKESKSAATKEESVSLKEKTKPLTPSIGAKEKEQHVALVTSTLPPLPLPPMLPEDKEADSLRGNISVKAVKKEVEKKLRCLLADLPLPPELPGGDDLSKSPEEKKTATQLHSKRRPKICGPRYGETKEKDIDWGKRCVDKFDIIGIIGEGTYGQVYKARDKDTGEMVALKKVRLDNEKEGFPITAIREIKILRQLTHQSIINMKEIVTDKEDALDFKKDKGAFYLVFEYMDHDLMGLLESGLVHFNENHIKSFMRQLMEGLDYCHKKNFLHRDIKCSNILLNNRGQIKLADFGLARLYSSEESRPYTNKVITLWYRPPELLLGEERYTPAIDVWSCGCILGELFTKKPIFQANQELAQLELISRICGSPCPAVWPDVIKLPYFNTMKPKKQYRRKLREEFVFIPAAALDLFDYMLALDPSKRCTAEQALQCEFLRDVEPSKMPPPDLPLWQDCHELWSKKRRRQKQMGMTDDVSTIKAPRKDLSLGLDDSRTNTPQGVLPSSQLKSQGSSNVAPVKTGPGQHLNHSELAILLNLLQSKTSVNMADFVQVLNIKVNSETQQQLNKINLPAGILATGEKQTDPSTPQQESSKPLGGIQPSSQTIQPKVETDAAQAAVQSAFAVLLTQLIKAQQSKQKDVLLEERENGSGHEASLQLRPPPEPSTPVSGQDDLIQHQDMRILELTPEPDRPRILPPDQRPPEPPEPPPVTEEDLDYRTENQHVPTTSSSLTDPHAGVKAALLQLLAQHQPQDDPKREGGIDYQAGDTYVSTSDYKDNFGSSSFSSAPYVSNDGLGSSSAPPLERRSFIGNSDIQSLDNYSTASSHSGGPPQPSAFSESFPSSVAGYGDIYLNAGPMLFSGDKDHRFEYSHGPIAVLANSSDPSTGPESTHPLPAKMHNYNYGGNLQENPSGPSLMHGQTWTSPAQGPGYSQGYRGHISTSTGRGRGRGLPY

[5] = biological target: Protein kinase C delta type (Homo sapiens, UniProt Q05655)
Chain of Protein kinase C delta type (Q05655 whole entry): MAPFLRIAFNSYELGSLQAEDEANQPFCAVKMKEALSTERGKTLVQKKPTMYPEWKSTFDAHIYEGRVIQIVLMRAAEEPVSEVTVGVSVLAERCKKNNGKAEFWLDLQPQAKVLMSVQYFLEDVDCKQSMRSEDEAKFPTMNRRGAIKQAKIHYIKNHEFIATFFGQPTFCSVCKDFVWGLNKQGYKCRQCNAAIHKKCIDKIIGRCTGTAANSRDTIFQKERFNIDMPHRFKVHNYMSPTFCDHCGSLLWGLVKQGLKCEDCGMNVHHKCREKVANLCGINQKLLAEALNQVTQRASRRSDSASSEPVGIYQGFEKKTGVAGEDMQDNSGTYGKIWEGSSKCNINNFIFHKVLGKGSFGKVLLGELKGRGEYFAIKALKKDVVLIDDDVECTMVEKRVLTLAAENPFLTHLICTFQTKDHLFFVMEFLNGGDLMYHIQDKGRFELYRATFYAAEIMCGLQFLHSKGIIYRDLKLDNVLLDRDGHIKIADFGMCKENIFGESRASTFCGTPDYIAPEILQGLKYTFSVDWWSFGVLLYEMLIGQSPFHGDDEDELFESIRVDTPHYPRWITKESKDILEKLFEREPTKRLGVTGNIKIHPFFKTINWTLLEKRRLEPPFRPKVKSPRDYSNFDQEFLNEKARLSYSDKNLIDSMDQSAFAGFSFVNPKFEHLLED

[6] = biological target: Receptor-interacting serine/threonine-protein kinase 2 (Homo sapiens, UniProt O43353)
Chain of Receptor-interacting serine/threonine-protein kinase 2 (O43353 whole entry): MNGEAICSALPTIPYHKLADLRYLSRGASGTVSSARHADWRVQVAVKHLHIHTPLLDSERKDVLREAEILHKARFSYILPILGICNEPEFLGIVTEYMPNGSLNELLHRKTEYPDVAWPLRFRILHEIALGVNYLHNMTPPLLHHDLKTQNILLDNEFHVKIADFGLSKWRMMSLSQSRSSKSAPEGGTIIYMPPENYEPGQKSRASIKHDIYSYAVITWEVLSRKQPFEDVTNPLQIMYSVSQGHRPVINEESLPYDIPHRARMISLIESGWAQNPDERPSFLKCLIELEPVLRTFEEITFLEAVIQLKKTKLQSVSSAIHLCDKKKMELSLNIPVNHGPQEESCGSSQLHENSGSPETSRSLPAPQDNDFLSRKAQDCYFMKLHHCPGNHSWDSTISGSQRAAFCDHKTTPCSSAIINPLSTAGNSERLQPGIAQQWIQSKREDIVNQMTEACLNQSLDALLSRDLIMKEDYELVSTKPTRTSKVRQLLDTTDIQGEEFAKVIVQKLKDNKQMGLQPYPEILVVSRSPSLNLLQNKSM

[7] = biological target: T3, Inhibitor of nuclear factor kappa-B kinase subunit epsilon (Homo sapiens, UniProt Q14164)
T3 sequence (Q14164 whole entry): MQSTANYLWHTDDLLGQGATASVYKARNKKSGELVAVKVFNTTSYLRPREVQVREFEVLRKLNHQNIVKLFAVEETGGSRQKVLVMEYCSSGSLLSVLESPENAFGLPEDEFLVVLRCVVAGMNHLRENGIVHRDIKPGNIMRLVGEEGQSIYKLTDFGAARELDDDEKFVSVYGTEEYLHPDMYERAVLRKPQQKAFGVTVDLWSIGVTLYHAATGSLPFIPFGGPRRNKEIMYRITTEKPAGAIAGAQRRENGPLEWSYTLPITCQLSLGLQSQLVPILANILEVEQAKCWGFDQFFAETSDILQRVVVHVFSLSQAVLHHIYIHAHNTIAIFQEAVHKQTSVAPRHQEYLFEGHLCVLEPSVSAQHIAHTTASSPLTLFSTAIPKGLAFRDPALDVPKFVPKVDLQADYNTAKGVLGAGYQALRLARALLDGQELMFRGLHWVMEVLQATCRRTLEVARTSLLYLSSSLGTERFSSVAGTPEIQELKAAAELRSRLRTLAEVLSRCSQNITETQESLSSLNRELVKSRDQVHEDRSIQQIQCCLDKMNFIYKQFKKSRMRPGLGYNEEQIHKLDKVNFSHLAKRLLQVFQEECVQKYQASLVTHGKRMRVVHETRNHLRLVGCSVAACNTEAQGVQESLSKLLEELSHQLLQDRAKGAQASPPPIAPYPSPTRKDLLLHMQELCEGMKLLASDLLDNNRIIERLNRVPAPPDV

Scaffold protein ILK = biological target: T4, Scaffold protein ILK (Homo sapiens, UniProt Q13418)
T4 sequence (Q13418 whole entry): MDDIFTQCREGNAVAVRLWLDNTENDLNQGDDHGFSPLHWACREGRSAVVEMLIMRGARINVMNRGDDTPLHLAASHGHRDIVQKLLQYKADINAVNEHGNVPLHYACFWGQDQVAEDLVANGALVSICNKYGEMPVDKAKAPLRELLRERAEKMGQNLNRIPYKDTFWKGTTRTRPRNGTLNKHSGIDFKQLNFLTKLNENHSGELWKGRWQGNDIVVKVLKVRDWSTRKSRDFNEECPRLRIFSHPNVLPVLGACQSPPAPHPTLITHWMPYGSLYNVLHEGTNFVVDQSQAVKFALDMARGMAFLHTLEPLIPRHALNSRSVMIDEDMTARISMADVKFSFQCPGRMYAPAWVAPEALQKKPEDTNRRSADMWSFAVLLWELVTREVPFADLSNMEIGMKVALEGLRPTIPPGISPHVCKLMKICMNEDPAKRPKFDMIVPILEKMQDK

Chain of MAP kinase-activated protein kinase 2 (P49137 whole entry): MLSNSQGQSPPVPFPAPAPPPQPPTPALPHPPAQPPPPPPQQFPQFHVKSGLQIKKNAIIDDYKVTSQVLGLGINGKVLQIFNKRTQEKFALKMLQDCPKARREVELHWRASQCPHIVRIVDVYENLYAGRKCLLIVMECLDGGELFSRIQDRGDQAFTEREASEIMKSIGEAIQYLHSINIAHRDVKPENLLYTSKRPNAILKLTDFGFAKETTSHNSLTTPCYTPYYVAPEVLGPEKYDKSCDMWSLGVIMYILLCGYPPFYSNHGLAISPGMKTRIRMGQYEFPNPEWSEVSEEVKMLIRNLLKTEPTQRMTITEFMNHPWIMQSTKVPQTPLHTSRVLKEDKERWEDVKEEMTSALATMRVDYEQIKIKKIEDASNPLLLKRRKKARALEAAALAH
Chain of Ephrin type-A receptor 4 (P54764 whole entry): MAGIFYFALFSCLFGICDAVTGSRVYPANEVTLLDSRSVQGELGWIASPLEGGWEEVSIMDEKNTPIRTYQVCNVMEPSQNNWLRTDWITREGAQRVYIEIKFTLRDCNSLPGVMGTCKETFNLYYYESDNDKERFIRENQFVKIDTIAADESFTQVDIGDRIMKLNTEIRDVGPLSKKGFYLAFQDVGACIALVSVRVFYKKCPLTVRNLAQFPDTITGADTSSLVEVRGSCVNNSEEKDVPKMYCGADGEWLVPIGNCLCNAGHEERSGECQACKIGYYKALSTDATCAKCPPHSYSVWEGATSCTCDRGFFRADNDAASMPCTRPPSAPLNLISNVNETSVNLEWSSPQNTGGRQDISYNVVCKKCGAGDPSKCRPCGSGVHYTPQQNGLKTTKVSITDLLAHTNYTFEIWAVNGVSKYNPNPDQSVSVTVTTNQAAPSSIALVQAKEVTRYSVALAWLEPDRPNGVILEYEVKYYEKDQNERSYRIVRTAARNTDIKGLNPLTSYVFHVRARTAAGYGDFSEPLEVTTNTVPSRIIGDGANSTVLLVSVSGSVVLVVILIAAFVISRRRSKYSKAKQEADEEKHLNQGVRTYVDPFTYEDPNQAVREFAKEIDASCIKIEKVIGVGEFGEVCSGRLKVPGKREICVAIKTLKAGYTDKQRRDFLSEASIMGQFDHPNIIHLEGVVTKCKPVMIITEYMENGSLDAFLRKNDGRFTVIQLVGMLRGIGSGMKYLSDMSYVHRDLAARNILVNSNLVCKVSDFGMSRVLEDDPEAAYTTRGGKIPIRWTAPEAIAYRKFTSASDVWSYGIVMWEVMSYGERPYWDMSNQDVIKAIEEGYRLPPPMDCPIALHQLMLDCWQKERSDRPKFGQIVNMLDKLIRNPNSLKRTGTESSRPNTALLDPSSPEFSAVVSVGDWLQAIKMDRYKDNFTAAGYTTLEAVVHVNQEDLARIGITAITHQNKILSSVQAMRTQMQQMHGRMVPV

| Kd [1] | Kd (ADP/ATP translocase 3) | Kd [3] | Kd [4] | Kd [5] | Kd (Scaffold protein ILK) | Structure (SMILES) | Kd (Ephrin type-A receptor 4) | Kd [2] | Kd [6] | Kd [7] |
| --- | --- | --- | --- | --- | --- | --- | --- | --- | --- | --- |
|  | > 30 µM (inactive) | > 30 µM (inactive) |  |  | > 30 µM (inactive) | COc1cc2c(N3CCN(C(=O)Nc4ccc(OC(C)C)cc4)CC3)ncnc2cc1OCCCN1CCCCC1 [TANDUTINIB] |  |  |  |  |
| > 30 µM (inactive) | > 30 µM (inactive) | > 30 µM (inactive) | > 30 µM (inactive) | > 30 µM (inactive) |  | C=CC(=O)Nc1cccc(Nc2nc(Nc3ccc(N4CCN(C(C)=O)CC4)cc3OC)ncc2C(F)(F)F)c1 [ROCILETINIB] | > 30 µM (inactive) | > 30 µM (inactive) | > 30 µM (inactive) | > 30 µM (inactive) |
|  | > 30 µM (inactive) | > 30 µM (inactive) |  |  | > 30 µM (inactive) | CC1(C)CNc2cc(NC(=O)c3cccnc3NCc3ccncc3)ccc21 [MOTESANIB] |  |  |  |  |
|  | > 30 µM (inactive) | > 30 µM (inactive) |  |  | > 30 µM (inactive) | Cn1cnc2c(F)c(Nc3ccc(Br)cc3Cl)c(C(=O)NOCCO)cc21 [SELUMETINIB] |  |  |  |  |
| > 30 µM (inactive) | > 30 µM (inactive) | > 30 µM (inactive) | > 30 µM (inactive) | > 30 µM (inactive) | > 30 µM (inactive) | CC(C)(O)CC(=O)NCCn1ccc2ncnc(Nc3ccc(Oc4cccc(C(F)(F)F)c4)c(Cl)c3)c21 [TAK-285] | > 30 µM (inactive) |  |  | > 30 µM (inactive) |
|  | > 30 µM (inactive) | > 30 µM (inactive) |  |  | > 30 µM (inactive) | C[C@@]1(C(=O)Nc2ccc(F)nc2)CCCN1c1nc(Nc2cc(C3CC3)n[nH]2)c2cccn2n1 [BMS-754807] |  |  |  |  |

Second part, the molecule before the results:

| Structure (SMILES) | Kd [1] | Kd (ADP/ATP translocase 3) | Kd [3] | Kd [4] | Kd [5] | Kd (Scaffold protein ILK) | Kd (Ephrin type-A receptor 4) | Kd [2] | Kd [6] | Kd [7] |
| --- | --- | --- | --- | --- | --- | --- | --- | --- | --- | --- |
| CCN(CCCOc1ccc2c(Nc3cc(CC(=O)Nc4cccc(F)c4)n[nH]3)ncnc2c1)CCOP(=O)(O)O [BARASERTIB] | > 30 µM (inactive) | > 30 µM (inactive) | > 30 µM (inactive) | > 30 µM (inactive) | > 30 µM (inactive) |  | > 30 µM (inactive) | > 30 µM (inactive) | 1.85 µM (active) |  |
| COc1cc(Nc2ncc(F)c(Nc3ccc4c(n3)N(COP(=O)(O)O)C(=O)C(C)(C)O4)n2)cc(OC)c1OC [FOSTAMATINIB] | > 30 µM (inactive) | > 30 µM (inactive) | > 30 µM (inactive) | > 30 µM (inactive) | > 30 µM (inactive) | > 30 µM (inactive) | > 30 µM (inactive) |  | > 30 µM (inactive) | 1.32 µM (active) |
| COc1cc2c(Oc3ccc4[nH]c(C)cc4c3F)ncnc2cc1OCCCN1CCCC1 [CEDIRANIB] |  | > 30 µM (inactive) | > 30 µM (inactive) |  |  | > 30 µM (inactive) |  |  |  |  |
| O=S(=O)(c1cccc2c(O)nccc12)N1CCCNCC1 [HYDROXYFASUDIL] |  | > 30 µM (inactive) | > 30 µM (inactive) | > 30 µM (inactive) | > 30 µM (inactive) | > 30 µM (inactive) | > 30 µM (inactive) | > 30 µM (inactive) | > 30 µM (inactive) | > 30 µM (inactive) |
| CC1(COc2ccc3c(c2)ncn3-c2ccc3cccc(N4CCC(N)CC4)c3n2)COC1 [CRENOLANIB] | > 30 µM (inactive) | > 30 µM (inactive) | > 30 µM (inactive) | > 30 µM (inactive) |  | 1.33 µM | > 30 µM (inactive) | > 30 µM (inactive) | 1.31 µM (active) | > 30 µM (inactive) |
| C=CCn1c(=O)c2cnc(Nc3ccc(N4CCN(C)CC4)cc3)nc2n1-c1cccc(C(C)(C)O)n1 [ADAVOSERTIB] | > 30 µM (inactive) | > 30 µM (inactive) | > 30 µM (inactive) | > 30 µM (inactive) | > 30 µM (inactive) | > 30 µM (inactive) | > 30 µM (inactive) | > 30 µM (inactive) | > 30 µM (inactive) |  |
| C[C@]1(O)C[C@@H](c2nc(-c3ccc4ccc(-c5ccccc5)nc4c3)c3c(N)nccn32)C1 [LINSITINIB] |  | > 30 µM (inactive) | > 30 µM (inactive) | > 30 µM (inactive) |  |  | > 30 µM (inactive) | > 30 µM (inactive) | 1.36 µM (active) | > 30 µM (inactive) |
| O=S(=O)(c1cccc2cnccc12)N1CCCNCC1 [FASUDIL] |  | > 30 µM (inactive) | > 30 µM (inactive) |  |  | > 30 µM (inactive) | > 30 µM (inactive) | > 30 µM (inactive) | > 30 µM (inactive) |  |
| CN(c1ncccc1CNc1nc(Nc2ccc3c(c2)CC(=O)N3)ncc1C(F)(F)F)S(C)(=O)=O [PF-00562271] |  | > 30 µM (inactive) | > 30 µM (inactive) | 4.5 µM (active) |  | > 30 µM (inactive) | > 30 µM (inactive) | 0.138 µM (active) | > 30 µM (inactive) |  |
| CCOc1ccn(-c2ccc(F)cc2)c(=O)c1C(=O)Nc1ccc(Oc2ccnc(N)c2Cl)c(F)c1 [BMS-777607] | > 30 µM (inactive) | > 30 µM (inactive) | > 30 µM (inactive) | > 30 µM (inactive) | > 30 µM (inactive) |  | > 30 µM (inactive) | > 30 µM (inactive) | > 30 µM (inactive) |  |
| Cn1c(=O)n(-c2ccc(C(C)(C)C#N)cc2)c2c3cc(-c4cnc5ccccc5c4)ccc3ncc21 [DACTOLISIB] | > 30 µM (inactive) | > 30 µM (inactive) | > 30 µM (inactive) | > 30 µM (inactive) | > 30 µM (inactive) | > 30 µM (inactive) | > 30 µM (inactive) | > 30 µM (inactive) | > 30 µM (inactive) |  |
| CNC(=O)c1ccc(Nc2ncc(C(F)(F)F)c(NCc3nccnc3N(C)S(C)(=O)=O)n2)cc1 [DEFACTINIB] | > 30 µM (inactive) | > 30 µM (inactive) | > 30 µM (inactive) | 3.11 µM (active) | > 30 µM (inactive) | > 30 µM (inactive) | > 30 µM (inactive) |  | > 30 µM (inactive) | > 30 µM (inactive) |
| CN(C)C/C=C/C(=O)Nc1cc2c(Nc3ccc(F)c(Cl)c3)ncnc2cc1O[C@H]1CCOC1 [AFATINIB] |  | > 30 µM (inactive) | > 30 µM (inactive) |  |  | > 30 µM (inactive) |  |  |  |  |
| CN1CCN(c2nc(C3=C(c4c[nH]c5ccccc45)C(=O)NC3=O)c3ccccc3n2)CC1 [SOTRASTAURIN] | > 30 µM (inactive) | > 30 µM (inactive) |  | > 30 µM (inactive) | 0.005 µM (active) |  | > 30 µM (inactive) | > 30 µM (inactive) | > 30 µM (inactive) | > 30 µM (inactive) |
